Measurements: US8067445B2, “N,N-disubstituted aminoalkylbiphenyl antagonists of prostaglandin D2 receptors” (Panmira Pharmaceuticals, LLC, priority 2008, dated 2011)

Assays:
[1] = target: T1, human DP2 receptor (Homo sapiens, UniProt Q9Y5Y4); assay: DP2/CRTH2 radioligand binding assay ([3H]PGD2); settings: [3H]PGD2 binding, membranes of HEK293 cells expressing human DP2; read-out: hDP2
T1 construct: expressed in transfected cells
T1 sequence (Q9Y5Y4 1-395): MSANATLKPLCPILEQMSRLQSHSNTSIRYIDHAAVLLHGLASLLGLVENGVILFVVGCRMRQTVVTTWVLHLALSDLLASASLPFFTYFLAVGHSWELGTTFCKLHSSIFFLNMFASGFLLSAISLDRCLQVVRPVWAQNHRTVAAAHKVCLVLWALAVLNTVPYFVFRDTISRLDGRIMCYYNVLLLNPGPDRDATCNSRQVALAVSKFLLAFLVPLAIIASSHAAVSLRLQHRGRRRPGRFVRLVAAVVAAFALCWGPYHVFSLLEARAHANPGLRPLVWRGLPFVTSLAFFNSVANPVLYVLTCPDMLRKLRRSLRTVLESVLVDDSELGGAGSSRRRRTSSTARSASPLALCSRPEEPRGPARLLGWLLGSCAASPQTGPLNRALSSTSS
Method in brief: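 Membranes from HEK293 cells stably expressing recombinant human DP2 incubated 60 min at room temperature with 1 nM [3H]PGD2 and compound in pH 7.4 Hepes/MnCl2/EDTA buffer, ± 0.2% human serum albumin. Bound radioactivity measured after filtration; non-specific binding defined with 10 μM PGD2. IC50 from titration curves.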

[2] = target: T2, human DP1 receptor (Homo sapiens, UniProt Q13258); assay: DP1 radioligand binding assay ([3H]BWA868C, platelet membranes); settings: [3H]BWA868C binding, human platelet membranes; read-out: hDP1
T2 construct: tissue Biological Specialty Corporation; host or cells: human platelet membranes
T2 sequence (Q13258 1-359): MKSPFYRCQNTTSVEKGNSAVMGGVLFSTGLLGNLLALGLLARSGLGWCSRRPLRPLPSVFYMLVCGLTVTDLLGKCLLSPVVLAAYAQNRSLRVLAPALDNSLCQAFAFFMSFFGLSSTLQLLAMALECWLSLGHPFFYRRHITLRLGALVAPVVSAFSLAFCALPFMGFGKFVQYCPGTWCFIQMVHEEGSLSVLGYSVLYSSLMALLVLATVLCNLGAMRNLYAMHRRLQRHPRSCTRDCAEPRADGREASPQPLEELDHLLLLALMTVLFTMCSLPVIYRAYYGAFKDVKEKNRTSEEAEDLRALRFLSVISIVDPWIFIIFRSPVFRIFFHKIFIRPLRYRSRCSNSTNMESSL
Procedure: The ability of a compound to bind to the human DPI receptor was evaluated via a radioligand membrane binding assay using the DP1 selective synthetic ligand [^311]BWA868C. Packed human platelets (Biological Specialty Corporation), were resuspended in 6 volumes of Hepes/HBSS buffer (10 mM Hepes, 1 mM DTT in Hanks Balanced Salt Solution (HBSS)), lysed and centrifuged at 75,000×g to pellet the membranes. Membranes were resuspended in Hepes/HBSS buffer to approximately 12 mg protein/ml. Membranes (20 μg protein/well) are incubated in 96-well plates with 2 nM [^3H]BWA868C and test compound in Assay Buffer (50 mM Hepes, 10 mM MnCl2, 1 mM EDTA, plus or minus 0.2% human serum albumin, pH 7.4) for 60 minutes at room temperature. The reactions are terminated by rapid filtration through Whatman GF/C glass fibre filter plates. The filter plates were pre-soaked in 0.33% polyethylenimine for 30 minutes at room temperature then washed in Wash Buffer (50 mM Hepes, 0.5 M NaCl pH 7.4) prior to harvesting. After harvesting, the filter plates are washed 3 times with 1 ml cold Wash Buffer then dried. Scintillant is then added to the plates and the radioactivity retained on the filters is determined on a Packard TopCount (Perkin Elmer). Specific binding is determined as total radioactive binding minus non-specific binding in the presence of 10 μM BW A868C. IC50s were determined using GraphPad prism analysis of drug titration curves.

CCN(Cc1cc(C(F)(F)F)ccc1-c1cc(CC(=O)O)ccc1OC)/C(=N/C#N)NCC1CC1 [Compound 1-146, [2′-(N′-Cyano-N″-cyclopropylmethyl-N-ethyl-guanidinomethyl)-6-methoxy-4′-trifluoromethyl-biphenyl-3-yl]-acetic acid]
IC50 [1]: < 0.3 µM
IC50 [2]: 1 to 30 µM

CCN(Cc1cc(C(F)(F)F)ccc1-c1cc(Cl)cc(CC(=O)O)c1)C(=O)C1CC1 [Compound 1-135, {5-Chloro-2′-[(cyclopropanecarbonyl-ethyl-amino)-methyl]-4′-trifluoromethyl-biphenyl-3-yl}-acetic acid]
IC50 [1]: < 0.3 µM
IC50 [2]: 1 to 30 µM

CCN(Cc1cc(C(F)(F)F)ccc1-c1cc(Cl)cc(CC(=O)O)c1)C(C)=O [Compound 1-137, {2′-[(Acetyl-ethyl-amino)-methyl]-5-chloro-4′-trifluoromethyl-biphenyl-3-yl}-acetic acid]
IC50 [1]: < 0.3 µM
IC50 [2]: 1 to 30 µM

CCN(Cc1cc(C(F)(F)F)ccc1-c1ccc(C(F)(F)F)c(CC(=O)O)c1)C(=O)OCc1ccccc1 [Compound 1-124, {2′-[(Benzyloxycarbonyl-ethyl-amino)-methyl]-4,4′-bis-trifluoromethyl-biphenyl-3-yl}-acetic acid]
IC50 [1]: 0.3 to 1 µM
IC50 [2]: 0.3 to 1 µM

CCN(C(C)=O)C(C)c1cc(C(F)(F)F)ccc1-c1cc(CC(=O)O)ccc1OC (stereo not drawn) [Compound 1-22, {2′-[1-(Acetyl-ethyl-amino)-ethyl]-6-methoxy-4′-trifluoromethyl-biphenyl-3-yl}-acetic acid]
IC50 [1]: 1 to 30 µM
IC50 [2]: 1 to 30 µM

CCN(Cc1cc(C(F)(F)F)ccc1-c1cc(CC(=O)O)cc(C(F)(F)F)c1)C(C)=O [Compound 1-138, {2′-[(Acetyl-ethyl-amino)-methyl]-5,4′-bis-trifluoromethyl-biphenyl-3-yl}-acetic acid]
IC50 [1]: < 0.3 µM
IC50 [2]: 1 to 30 µM

CCN(Cc1ccc(C(F)(F)F)cc1-c1cc(CC(=O)O)ccc1OC)C(=O)C1CC1 [Compound 1-170, {2′-[(Cyclopropanecarbonyl-ethyl-amino)-methyl]-6-methoxy-5′-trifluoromethyl-biphenyl-3-yl}-acetic acid]
IC50 [1]: < 0.3 µM
IC50 [2]: 1 to 30 µM

CCN(Cc1cc(C(F)(F)F)ccc1-c1cc(C(F)(F)C(=O)O)ccc1OC)C(C)=O [Compound 1-91, {2′-[(Acetyl-ethyl-amino)-methyl]-6-methoxy-4′-trifluoromethyl-biphenyl-3-yl}-difluoro-acetic acid]
IC50 [1]: 1 to 30 µM
IC50 [2]: 1 to 30 µM

COc1ccc(CC(=O)O)cc1-c1ccc(C(F)(F)F)cc1CN(CCc1ccccc1)S(C)(=O)=O [Compound 1-101, {2′-[(Methanesulfonyl-phenethyl-amino)-methyl]-6-methoxy-4′-trifluoromethyl-biphenyl-3-yl}-acetic acid]
IC50 [1]: 1 to 30 µM
IC50 [2]: 1 to 30 µM

CCN(Cc1ccc(C)cc1-c1cc(CC(=O)O)ccc1OC)C(=O)C1CC1 [Compound 1-171, {2′-[(Cyclopropanecarbonyl-ethyl-amino)-methyl]-6-methoxy-5′-methyl-biphenyl-3-yl}-acetic acid]
IC50 [1]: < 0.3 µM
IC50 [2]: 1 to 30 µM

CCN(Cc1cc(C(F)(F)F)ccc1-c1cc(CC(=O)O)ccc1OC)C(=O)Cn1ccnc1C [Compound 1-149, [2′-({Ethyl-[2-(2-methyl-imidazol-1-yl)-acetyl]-amino}-methyl)-6-methoxy-4′-trifluoromethyl-biphenyl-3-yl]-acetic acid]
IC50 [1]: < 0.3 µM
IC50 [2]: 1 to 30 µM

CCN(Cc1cc(C(F)(F)F)ccc1-c1cc(CC(N)=O)ccc1OC)C(=O)C1CC1 [Compound 2-8, Cyclopropanecarboxylic acid (5′-carbamoylmethyl-2′-methoxy-4-trifluoromethyl-biphenyl-2-ylmethyl)-ethyl-amide]
IC50 [1]: 1 to 30 µM
IC50 [2]: 1 to 30 µM

CCN(Cc1cc(C(F)(F)F)ccc1-c1cc(CC(=O)O)ccc1-c1ccccc1)C(=O)OCc1ccccc1 [Compound 1-144, {2″-[(Benzyloxycarbonyl-ethyl-amino)-methyl]-4″-trifluoromethyl-[1,1′;2′,1″]terphenyl-4′-yl}-acetic acid]
IC50 [1]: < 0.3 µM
IC50 [2]: 0.3 to 1 µM

CCN(Cc1cc(C(F)(F)F)ccc1-c1cc(CC(=O)O)ccc1OC)C(=O)CN1CCCC1 [Compound 1-151, (2′-{[Ethyl-(2-pyrrolidin-1-yl-acetyl)-amino]-methyl}-6-methoxy-4′-trifluoromethyl-biphenyl-3-yl)-acetic acid]
IC50 [1]: 1 to 30 µM
IC50 [2]: 1 to 30 µM

CCN(Cc1ccc(C)cc1-c1cc(CC(=O)O)ccc1OC)C(=O)OCc1ccc(F)cc1 [Compound 1-169, (2′-{[Ethyl-(4-fluoro-benzyloxycarbonyl)-amino]-methyl}-6-methoxy-5′-methyl-biphenyl-3-yl)-acetic acid]
IC50 [1]: < 0.3 µM
IC50 [2]: 1 to 30 µM

CCN(Cc1cc(C(F)(F)F)ccc1-c1cc(Cc2nn[nH]n2)ccc1OC)C(=O)OCc1ccccc1 [Compound 2-5, Ethyl-[2′-methoxy-5′-(2H-tetrazol-5-ylmethyl)-4-trifluoromethyl-biphenyl-2-ylmethyl]-carbamic acid benzyl ester]
IC50 [1]: < 0.3 µM
IC50 [2]: < 0.3 µM

CCN(Cc1cc(NS(=O)(=O)c2ccc(Cl)cc2)ccc1-c1cc(CC(=O)O)ccc1OC)C(=O)OCc1ccccc1 [Compound 1-156, [2′-[(Benzyloxycarbonyl-ethyl-amino)-methyl]-4′-(4-chloro-benzenesulfonylamino)-6-methoxy-biphenyl-3-yl]-acetic acid]
IC50 [1]: < 0.3 µM
IC50 [2]: 1 to 30 µM

CCN(Cc1ccc(C(F)(F)F)cc1-c1cc(CC(=O)O)ccc1OC)C(=O)OCc1ccc(Cl)cc1 [Compound 1-174, (2′-{[(4-Chloro-benzyloxycarbonyl)-ethyl-amino]-methyl}-6-methoxy-5′-trifluoromethyl-biphenyl-3-yl)-acetic acid]
IC50 [1]: < 0.3 µM
IC50 [2]: 0.3 to 1 µM

CCN(Cc1cc(C(F)(F)F)ccc1-c1cc(C(C)(C)C(=O)O)ccc1OC)C(=O)OCc1ccccc1 [Compound 1-116, 2-{2′-[(Benzyloxycarbonyl-ethyl-amino)-methyl]-6-methoxy-4′-trifluoromethyl-biphenyl-3-yl}-2-methyl-propionic acid]
IC50 [1]: 0.3 to 1 µM
IC50 [2]: 1 to 30 µM

CCN(Cc1cc(C(F)(F)F)ccc1-c1cc(Cl)cc(CC(=O)O)c1)C(=O)NCc1ccccc1 [Compound 1-157, [2′-(3-Benzyl-1-ethyl-ureidomethyl)-5-chloro-4′-trifluoromethyl-biphenyl-3-yl]-acetic acid]
IC50 [1]: < 0.3 µM
IC50 [2]: 1 to 30 µM

CCN(Cc1cc(C(F)(F)F)ccc1-c1cc(CC#N)ccc1OC)C(=O)C1CC1 [Compound 2-3, Cyclopropanecarboxylic acid (5′-cyanomethyl-2′-methoxy-4-trifluoromethyl-biphenyl-2-ylmethyl)-ethyl-amide]
IC50 [1]: > 30 µM
IC50 [2]: 1 to 30 µM

CCN(Cc1ccc(C(F)(F)F)cc1-c1cc(CC(=O)O)ccc1OC)C(=O)NCc1ccccc1 [Compound 1-172, [2′-(3-Benzyl-1-ethyl-ureidomethyl)-6-methoxy-5′-trifluoromethyl-biphenyl-3-yl]-acetic acid]
IC50 [1]: < 0.3 µM
IC50 [2]: 1 to 30 µM

CCN(Cc1ccc(C(F)(F)F)cc1-c1cc(CC(=O)O)ccc1OC)C(=O)OCc1ccc(F)cc1 [Compound 1-168, (2′-{[Ethyl-(4-fluoro-benzyloxycarbonyl)-amino]-methyl}-6-methoxy-5′-trifluoromethyl-biphenyl-3-yl)-acetic acid]
IC50 [1]: < 0.3 µM
IC50 [2]: 0.3 to 1 µM

CCN(Cc1cc(C(F)(F)F)ccc1-c1cc(CC(=O)O)ccc1OC)/C(=N/C#N)NCc1ccccn1 [Compound 1-147, [2′-(N′-Cyano-N-ethyl-N″-pyridin-2-ylmethyl-guanidinomethyl)-6-methoxy-4′-trifluoromethyl-biphenyl-3-yl]-acetic acid]
IC50 [1]: < 0.3 µM
IC50 [2]: 1 to 30 µM
